Read-outs that look alike come from different tables or passages of the source.
T1: MR S810L (Homo sapiens, UniProt P08235, S810L)
T1 sequence (P08235 1-984 S810L): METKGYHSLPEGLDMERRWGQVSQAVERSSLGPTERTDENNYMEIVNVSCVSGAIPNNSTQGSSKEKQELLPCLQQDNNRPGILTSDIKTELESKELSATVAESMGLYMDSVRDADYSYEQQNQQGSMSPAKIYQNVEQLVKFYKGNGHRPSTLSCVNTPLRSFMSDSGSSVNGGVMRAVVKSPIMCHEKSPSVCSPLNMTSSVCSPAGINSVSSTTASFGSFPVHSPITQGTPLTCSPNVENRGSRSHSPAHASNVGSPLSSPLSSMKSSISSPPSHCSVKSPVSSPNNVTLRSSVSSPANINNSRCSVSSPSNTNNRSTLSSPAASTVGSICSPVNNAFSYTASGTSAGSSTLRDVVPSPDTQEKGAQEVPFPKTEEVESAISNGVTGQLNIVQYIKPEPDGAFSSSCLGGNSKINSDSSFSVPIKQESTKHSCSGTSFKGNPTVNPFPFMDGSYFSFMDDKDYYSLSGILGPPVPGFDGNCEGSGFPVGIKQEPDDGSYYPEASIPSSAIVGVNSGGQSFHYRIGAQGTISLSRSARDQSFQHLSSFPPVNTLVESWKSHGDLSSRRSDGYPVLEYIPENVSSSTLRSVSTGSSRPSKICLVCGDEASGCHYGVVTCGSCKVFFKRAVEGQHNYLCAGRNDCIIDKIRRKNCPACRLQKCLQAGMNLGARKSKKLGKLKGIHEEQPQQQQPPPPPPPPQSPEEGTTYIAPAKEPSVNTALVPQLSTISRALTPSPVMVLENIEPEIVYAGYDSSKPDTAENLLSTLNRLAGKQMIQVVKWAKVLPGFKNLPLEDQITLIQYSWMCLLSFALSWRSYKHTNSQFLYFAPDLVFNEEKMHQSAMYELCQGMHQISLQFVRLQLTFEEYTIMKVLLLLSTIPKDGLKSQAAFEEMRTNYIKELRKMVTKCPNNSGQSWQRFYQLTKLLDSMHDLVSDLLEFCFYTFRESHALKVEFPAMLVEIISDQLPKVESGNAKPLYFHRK

T2: MR (Homo sapiens, UniProt P08235)
T2 sequence (P08235 1-984): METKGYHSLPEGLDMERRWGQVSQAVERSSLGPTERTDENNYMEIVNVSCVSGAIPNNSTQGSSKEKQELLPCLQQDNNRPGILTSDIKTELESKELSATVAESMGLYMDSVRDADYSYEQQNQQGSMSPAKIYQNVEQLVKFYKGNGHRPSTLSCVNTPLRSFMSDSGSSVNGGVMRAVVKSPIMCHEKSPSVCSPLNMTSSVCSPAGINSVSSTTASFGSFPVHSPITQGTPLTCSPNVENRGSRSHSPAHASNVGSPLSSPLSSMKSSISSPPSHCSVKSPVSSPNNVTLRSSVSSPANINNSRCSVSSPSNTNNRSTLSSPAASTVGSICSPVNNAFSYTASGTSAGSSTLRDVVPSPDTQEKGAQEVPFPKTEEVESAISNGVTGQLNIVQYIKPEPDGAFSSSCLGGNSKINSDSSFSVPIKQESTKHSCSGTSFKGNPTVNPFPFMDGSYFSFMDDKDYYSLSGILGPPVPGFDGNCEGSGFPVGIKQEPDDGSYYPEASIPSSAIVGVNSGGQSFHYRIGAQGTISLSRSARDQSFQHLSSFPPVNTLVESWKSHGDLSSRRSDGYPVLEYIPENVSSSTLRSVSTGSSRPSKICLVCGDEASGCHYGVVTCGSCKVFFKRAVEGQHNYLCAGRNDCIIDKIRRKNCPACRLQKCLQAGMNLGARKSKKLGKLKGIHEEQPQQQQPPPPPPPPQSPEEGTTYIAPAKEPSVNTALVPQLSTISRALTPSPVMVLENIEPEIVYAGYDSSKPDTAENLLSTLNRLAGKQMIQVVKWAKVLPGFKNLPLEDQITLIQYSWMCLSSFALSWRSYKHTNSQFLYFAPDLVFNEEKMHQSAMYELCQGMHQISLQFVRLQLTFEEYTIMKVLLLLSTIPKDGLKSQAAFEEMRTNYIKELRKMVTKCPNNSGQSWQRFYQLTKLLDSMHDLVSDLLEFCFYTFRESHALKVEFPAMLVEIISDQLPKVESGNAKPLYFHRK

T3: Wild type MR (Homo sapiens, UniProt P08235)
T3 sequence (P08235 1-984): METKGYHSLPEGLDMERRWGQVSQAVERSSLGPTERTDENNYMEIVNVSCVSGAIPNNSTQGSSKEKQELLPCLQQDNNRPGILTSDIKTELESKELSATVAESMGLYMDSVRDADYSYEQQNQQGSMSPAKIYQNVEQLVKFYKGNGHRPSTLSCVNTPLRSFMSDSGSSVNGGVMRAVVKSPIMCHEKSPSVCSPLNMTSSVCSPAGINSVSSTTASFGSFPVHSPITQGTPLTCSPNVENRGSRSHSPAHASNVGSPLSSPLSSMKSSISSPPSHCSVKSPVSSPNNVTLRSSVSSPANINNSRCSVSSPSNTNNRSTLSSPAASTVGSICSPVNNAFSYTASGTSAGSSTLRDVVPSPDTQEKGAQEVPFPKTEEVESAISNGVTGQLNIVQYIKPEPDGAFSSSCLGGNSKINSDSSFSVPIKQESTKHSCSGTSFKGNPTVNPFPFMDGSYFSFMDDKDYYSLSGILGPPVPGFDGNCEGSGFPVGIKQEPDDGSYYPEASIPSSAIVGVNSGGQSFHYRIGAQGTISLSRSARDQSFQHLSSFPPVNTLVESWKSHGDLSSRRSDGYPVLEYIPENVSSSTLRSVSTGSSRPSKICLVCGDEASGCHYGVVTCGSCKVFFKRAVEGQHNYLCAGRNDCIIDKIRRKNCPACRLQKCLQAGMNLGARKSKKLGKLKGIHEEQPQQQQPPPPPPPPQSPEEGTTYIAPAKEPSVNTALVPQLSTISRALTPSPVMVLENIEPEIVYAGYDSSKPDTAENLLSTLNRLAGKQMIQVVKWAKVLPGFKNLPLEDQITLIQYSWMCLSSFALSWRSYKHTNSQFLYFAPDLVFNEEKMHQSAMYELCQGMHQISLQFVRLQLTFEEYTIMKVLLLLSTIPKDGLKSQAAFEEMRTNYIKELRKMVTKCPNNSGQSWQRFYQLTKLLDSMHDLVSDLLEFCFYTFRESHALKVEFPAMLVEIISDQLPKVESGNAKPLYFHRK


What was measured:
Reporter Alone = assay: Ligand binding affinities on MR constructs (Table 1), Reporter Alone; details: read-out: IC50 binding affinity, Reporter Alone
Description: (§1) As used herein, the terms “weakly binding ligand” and “weak ligand” are used interchangeably and mean a ligand that binds a receptor with low affinity. The binding strength of a ligand to a receptor can be experimentally measured using any of several procedures, as is generally known in the art. In some embodiments of the presently disclosed subject matter, ligand binding is measured using a competitive binding assay in which a ligand of interest competes with a labeled ligand for binding to a receptor. […] This quantitative measurement can be expressed as an IC50 value. Therefore, the greater the IC50 value of a ligand, the lower the binding affinity the ligand has for the receptor.
(§2) Cortisol has a hydroxyl attached to C11, where cortisone has a ketone.

MR S810L = target: T1, MR S810L; assay: Ligand binding affinities on MR constructs (Table 1), MR S810L; details: read-out: IC50 binding affinity, MR S810L
Description: as §1, §2

MR = target: T2, MR; details: Quinkler & Stewart, 2003; cited from earlier work
Wild type MR = target: T3, Wild type MR; assay: Ligand binding affinities on MR constructs (Table 1), wild type MR
Description: as §1, §2

[1] = target: the molecule itself; assay: X-ray crystal structure of native MR LBD with deoxycorticosterone (crystal contact)

Row | Molecule | IC50 (Reporter Alone; cells printed in nM) [nM] | IC50 (Reporter Alone; in uM) [nM] | IC50 (MR S810L) [nM] | binding affinity for MR in words (MR) | also measured
1 | CC(=O)S[C@@H]1CC2=CC(=O)CC[C@]2(C)[C@H]2CC[C@@]3(C)[C@@H](CC[C@@]34CCC(=O)O4)[C@H]12 [Spironolactone, spironolactone] | 3.6 |  |  |  | 
2 | C[C@]12CCC(=O)C=C1CC[C@@H]1[C@@H]2[C@@H](O)C[C@]2(C=O)[C@@H](C(=O)CO)CC[C@@H]12 [Aldosterone, aldosterone] |  | > 10000 |  |  | 
3 | CC(=O)[C@H]1CC[C@H]2[C@@H]3CCC4=CC(=O)CC[C@]4(C)[C@H]3CC[C@]12C [Progesterone, progesterone] |  | > 10000 |  |  | 
4 | Native (wild type) MR LBD (amino acids 712-984) (receptor, Crystallized with deoxycorticosterone; the final model holds residues 727-908 and 914-984; also called native MR; WT MR) APAKEPSVNTALVPQLSTISRALTPSPVMVLENIEPEIVYAGYDSSKPDTAENLLSTLNRLAGKQMIQVVKWAKVLPGFKNLPLEDQITLIQYSWMCLSSFALSWRSYKHTNSQFLYFAPDLVFNEEKMHQSAMYELCQGMHQISLQFVRLQLTFEEYTIMKVLLLLSTIPKDGLKSQAAFEEMRTNYIKELRKMVTKCPNNSGQSWQRFYQLTKLLDSMHDLVSDLLEFCFYTFRESHALKVEFPAMLVEIISDQLPKVESGNAKPLYFHRK |  |  |  |  | binding result [1]: binds

Further lines, with some results ahead:

Row | IC50 (Reporter Alone; cells printed in nM) [nM] | IC50 (Reporter Alone; in uM) [nM] | IC50 (MR S810L) [nM] | Molecule | binding affinity for MR in words (MR) | also measured
5 |  | > 10000 | 20 | C[C@]12CCC(=O)C=C1CC[C@@H]1[C@@H]2C(=O)C[C@@]2(C)[C@H]1CC[C@]2(O)C(=O)CO [Cortisone, cortisone] | micromolar binder | IC50 (Wild type MR; Wild type MR, in uM, read-out: IC50 binding affinity, Wild type MR): > 10 µM; fold difference in IC50s between cortisone and cortisol (Wild type MR; wild type MR, transactivation assays): > 700 fold; IC50 (Wild type MR; wild-type MR, read-out: IC50 binding affinity, wild-type MR): > 10 µM
6 | 785 |  | 20 | C[C@]12CCC(=O)C=C1CC[C@@H]1[C@@H]2[C@@H](O)C[C@@]2(C)[C@H]1CC[C@]2(O)C(=O)CO [Cortisol, cortisol] | low nM binder | IC50 (Wild type MR; Wild type MR, cells printed in nM, read-out: IC50 binding affinity, Wild type MR): 0.021 µM

Reference: patent US20070219348A1, “Mutations in the mineralocorticoid receptor ligand binding domain polypeptide that permit structural determination of low affinity ligand complexes and screening methods employing same” (priority 2006, published 2007)
